Columns and labels:
[1] = target: full-length MALT1 protein (Strep-MALT1(1-824)-His) (Homo sapiens (Human), UniProt Q9UDY8); test: MALT1 Biochemical Protease Assay (Ac-LRSR-AMC substrate); conditions: 10 nM FL MALT1, 200 μM Ac-LRSR-AMC, 4 h at RT; read-out: MALT1_Biochemical activity (Ac-LRSR-amc) IC50
Outline: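 Full-length MALT1 pre-incubated with compounds (30 μM to 0.5 nM, 11 threefold steps) for 50 min at RT. After Ac-LRSR-AMC was added, the reaction ran 4 h at RT and AMC fluorescence was read. IC50 and Hill slope from curve fitting against no-enzyme and no-compound controls.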

[2] = system: IL6 secretion by OCI-LY3 ABC-DLBCL cells; test: Human IL6 Mesoscale assay (OCI-LY3); type: cell-based; conditions: Homo sapiens, 24 h
Method: (§1) NFKB signaling regulates the secretion of multiple cytokines, including IL6 and IL10. Secretion of the cytokines IL6 and IL10 by TMD8 or OCI-LY3 ABC-DLBCL cells was measured using a mesoscale assay. Inhibition of NFKB signaling by MALT1 or BTK inhibitors results in a decrease of IL6/10 secretion.
(§2) TMD8 or OCI-LY3 cells were propagated in RPMI-1640 (Sigma Aldrich) supplemented with 10% fetal bovine serum (HyClone), 1 mM sodium pyruvate (Invitrogen), 2 mM L-glutamine (Sigma Aldrich) and 1% PenStrep (Sigma Aldrich). Cell passage number should not exceed 30. Cells should be kept between 0.5-2.5 million cells per mL during culturing and cells should be supplemented every 2-3 days with fresh 50 μM beta-mercaptoenthanol. No beta-mercaptoethanol was used during the mesoscale assay.
(§3) For the Mesoscale assay, 100,000 TMD8 or OCI-LY3 cells were seeded per well into black-colored 96-well plates with clear bottom (Corning #3904) and test compounds were added in 9 dilution steps (1:2) ranging from 15 μM to 58.6 nM (final DMSO concentration 0.3%). DMSO control wells were used to determine the maximum signal (High Control (HC)). Treatment with the BTK inhibitor RN486 in a dose range from 30 nM to 131 pM (9 dilutions of 1:2) served as a positive control for NFKB pathway inhibition and was used to determine the maximum inhibition (Low Control (LC)). Compounds and cells were incubated for 24 h at 37° C. and 5% CO2 (assay volume is 150 μL). After 24 h of incubation 50 μL of the supernatant was transferred to a MSD plate (V-Plex Proinflammation Panel 1 (human) kit, Mesoscale (MSD)) and incubated for 2 h with vigorous shaking (600 rpm) at room temperature. Following incubation, plates were washed 3× with PBS+0.05% Tween-20 and 25 μL detection antibody solution (IL6 & IL10 antibodies in diluent 3 (MSD)) was added per well followed by 2 h of incubation with vigorous shaking (600 rpm) at room temperature. After 3× washes with PBS+0.05% Tween-20, plates were incubated with 150 μL 2× Read Buffer T and read on SECTOR imager.

[3] = system: IL10 secretion by OCI-LY3 ABC-DLBCL cells; test: Human IL10 Mesoscale assay (OCI-LY3); type: cell-based; conditions: Homo sapiens, 24 h
Method: as §1, §2, §3

[4] = system: IL6 secretion by TMD8 ABC-DLBCL cells; test: Human IL6 Mesoscale assay (TMD-8); type: cell-based; conditions: Homo sapiens, TMD8; TMD-8 cells, 24 h
Outline: (§4)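 TMD8 or OCI-LY3 cells (100,000/well) were exposed to compounds in 9 twofold dilutions from 15 μM to 58.6 nM (0.3% DMSO) for 24 h at 37 °C. Supernatant IL6 and IL10 were quantified by MSD electrochemiluminescence immunoassay. DMSO defined maximum signal and BTK inhibitor RN486 (30 nM–131 pM) defined maximum inhibition.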

[5] = system: IL10 secretion by TMD8 ABC-DLBCL cells; test: Human IL10 Mesoscale assay (TMD-8); type: cell-based; conditions: Homo sapiens, TMD8; TMD-8 cells, 24 h
Outline: as §4

Chain of full-length MALT1 protein (Strep-MALT1(1-824)-His) (Q9UDY8 whole entry): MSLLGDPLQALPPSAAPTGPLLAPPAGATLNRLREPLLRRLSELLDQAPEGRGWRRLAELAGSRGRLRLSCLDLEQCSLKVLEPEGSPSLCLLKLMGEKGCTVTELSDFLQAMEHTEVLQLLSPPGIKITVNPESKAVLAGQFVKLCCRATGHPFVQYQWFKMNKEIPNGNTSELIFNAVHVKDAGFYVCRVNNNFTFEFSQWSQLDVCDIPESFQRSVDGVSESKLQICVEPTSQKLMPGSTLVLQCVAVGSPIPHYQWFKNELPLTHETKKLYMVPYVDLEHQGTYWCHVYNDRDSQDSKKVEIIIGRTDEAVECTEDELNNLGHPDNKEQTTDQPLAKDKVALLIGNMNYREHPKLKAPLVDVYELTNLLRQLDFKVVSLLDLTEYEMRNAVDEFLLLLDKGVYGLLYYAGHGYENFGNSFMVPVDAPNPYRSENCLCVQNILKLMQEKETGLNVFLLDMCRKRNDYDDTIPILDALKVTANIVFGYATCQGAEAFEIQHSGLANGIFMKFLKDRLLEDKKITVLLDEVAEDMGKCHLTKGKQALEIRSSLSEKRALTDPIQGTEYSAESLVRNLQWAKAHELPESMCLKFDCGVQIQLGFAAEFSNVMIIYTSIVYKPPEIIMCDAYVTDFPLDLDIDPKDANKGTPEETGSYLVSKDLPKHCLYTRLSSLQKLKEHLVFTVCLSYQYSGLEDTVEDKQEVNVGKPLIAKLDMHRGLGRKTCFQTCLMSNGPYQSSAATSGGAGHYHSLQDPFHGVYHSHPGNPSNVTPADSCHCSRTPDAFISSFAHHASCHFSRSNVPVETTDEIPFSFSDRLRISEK

SMILES	IC50 [1]	IC50 [2]	IC50 [3]	IC50 [4]	IC50 [5]
Nc1ncc(-n2ncc(C(=O)Nc3cc(Cl)c(-n4nccn4)cc3F)c2C(F)(F)F)c2ccccc12 [Cpd 327, 1-(1-aminoisoquinolin-4-yl)-N-(5-chloro-2-fluoro-4-(2H-1,2,3-triazol-2-yl)phenyl)-5-(trifluoromethyl)-1H-pyrazole-4-carboxamide]	0.079 µM	0.129 µM	0.1 µM	–	–
O=C(Nc1cnc(-n2ccnn2)c(C(F)(F)F)c1)c1cnn(-c2cccc3ncccc23)c1C(F)(F)F [Cpd 283, N-(6-(1H-1,2,3-triazol-1-yl)-5-(trifluoromethyl)pyridin-3-yl)-1-(quinolin-5-yl)-5-(trifluoromethyl)-1H-pyrazole-4-carboxamide]	0.123 µM	0.851 µM	0.55 µM	–	–
O=C(Nc1cnc(-n2nccn2)c(Cl)c1)c1cnn(-c2cnc(C3CCCN3)c3ccccc23)c1C(F)(F)F (stereo not shown) [Cpd 380, N-(5-chloro-6-(2H-1,2,3-triazol-2-yl)pyridin-3-yl)-1-(1-(pyrrolidin-2-yl)isoquinolin-4-yl)-5-(trifluoromethyl)-1H-pyrazole-4-carboxamide]	0.447 µM	0.046 µM	0.024 µM	–	–
Cc1nc(-n2nccn2)c(Cl)cc1NC(=O)c1cnn(-c2cc(=O)[nH]c3ccccc23)c1C(F)(F)F [Cpd 358, N-(5-chloro-2-methyl-6-(2H-1,2,3-triazol-2-yl)pyridin-3-yl)-1-(2-oxo-1,2-dihydroquinolin-4-yl)-5-(trifluoromethyl)-1H-pyrazole-4-carboxamide]	0.019 µM	0.123 µM	0.126 µM	–	–
O=C(Nc1cnc(-n2nc3cccnc3n2)c(Cl)c1)c1cnn(-c2cccc3ncccc23)c1C(F)(F)F [Cpd 164, N-(6-(2H-[1,2,3]triazolo[4,5-b]pyridin-2-yl)-5-chloropyridin-3-yl)-1-(quinolin-5-yl)-5-(trifluoromethyl)-1H-pyrazole-4-carboxamide]	0.282 µM	1.66 µM	–	–	–
Cc1cn2c(-n3ncc(C(=O)Nc4cnc(-n5nccn5)c(Cl)c4)c3C(F)(F)F)cccc2n1 [Cpd 199, N-(5-chloro-6-(2H-1,2,3-triazol-2-yl)pyridin-3-yl)-1-(2-methylimidazo[1,2-a]pyridin-5-yl)-5-(trifluoromethyl)-1H-pyrazole-4-carboxamide]	0.11 µM	0.295 µM	–	–	–
Cc1cc(-n2nccn2)c(Cl)cc1NC(=O)c1cnn(-c2cccc3c(=O)[nH]ccc23)c1C(F)(F)F [Cpd 171, N-(5-chloro-2-methyl-4-(2H-1,2,3-triazol-2-yl)phenyl)-1-(1-oxo-1,2-dihydroisoquinolin-5-yl)-5-(trifluoromethyl)-1H-pyrazole-4-carboxamide]	0.071 µM	–	–	0.091 µM	0.06 µM
O=C1CO[C@H](c2ncc(-n3ncc(C(=O)Nc4cnc(-n5nccn5)c(Cl)c4)c3C(F)(F)F)c3ccccc23)C1 (single isomer, unassigned) [Cpd 439, (*S)—N-(5-chloro-6-(2H-1,2,3-triazol-2-yl)pyridin-3-yl)-1-(1-(4-oxotetrahydrofuran-2-yl)isoquinolin-4-yl)-5-(trifluoromethyl)-1H-pyrazole-4-carboxamide]	0.178 µM	–	–	4.27 µM	1 µM
COCc1ncc(-n2ncc(C(=O)Nc3cnc(-n4nccn4)c(Cl)c3)c2C(F)(F)F)c2ccccc12 [Cpd 404, N-(5-chloro-6-(2H-1,2,3-triazol-2-yl)pyridin-3-yl)-1-(1-(methoxymethyl)isoquinolin-4-yl)-5-(trifluoromethyl)-1H-pyrazole-4-carboxamide]	0.091 µM	–	–	0.912 µM	2.63 µM
Cc1nc(-n2nccn2)c(Br)cc1NC(=O)c1cnn(-c2cccc3c(=O)[nH]ccc23)c1C(F)(F)F [Cpd 185, N-(5-bromo-2-methyl-6-(2H-1,2,3-triazol-2-yl)pyridin-3-yl)-1-(1-oxo-1,2-dihydroisoquinolin-5-yl)-5-(trifluoromethyl)-1H-pyrazole-4-carboxamide]	0.018 µM	–	–	0.186 µM	0.162 µM
O=C(Nc1cnc(-n2nccn2)c(Cl)c1)c1cnn(-c2cccc3nc([C@H]4CCCO4)ccc23)c1C(F)(F)F (single isomer, unassigned) [Cpd 440, (*R)—N-(5-chloro-6-(2H-1,2,3-triazol-2-yl)pyridin-3-yl)-1-(2-(tetrahydrofuran-2-yl)quinolin-5-yl)-5-(trifluoromethyl)-1H-pyrazole-4-carboxamide]	1.58 µM	–	–	0.186 µM	0.162 µM
O=C(Nc1ccnc(C(F)(F)F)c1)c1cnn(-c2ccc(F)c3nccn23)c1C(F)(F)F [Cpd 209, 1-(8-fluoroimidazo[1,2-a]pyridin-5-yl)-5-(trifluoromethyl)-N-(2-(trifluoromethyl)pyridin-4-yl)-1H-pyrazole-4-carboxamide]	0.224 µM	–	–	1.48 µM	1.12 µM
Cc1cnc2cccc(-n3ncc(C(=O)Nc4cnc(-n5nccn5)c(Cl)c4)c3C(F)(F)F)n12 [Cpd 211, N-(5-chloro-6-(2H-1,2,3-triazol-2-yl)pyridin-3-yl)-1-(3-methylimidazo[1,2-a]pyridin-5-yl)-5-(trifluoromethyl)-1H-pyrazole-4-carboxamide]	0.035 µM	–	–	1.66 µM	2.29 µM
Cn1ncc(-c2ncc(NC(=O)c3cnn(-c4cccc5ncccc45)c3C(F)(F)F)cc2C#N)n1 [Cpd 257, N-(5-cyano-6-(2-methyl-2H-1,2,3-triazol-4-yl)pyridin-3-yl)-1-(quinolin-5-yl)-5-(trifluoromethyl)-1H-pyrazole-4-carboxamide]	0.234 µM	–	–	> 3.2 µM	0.646 µM
O=C(Nc1ccnc(N2CCOCC2)c1)c1cnn(-c2cccc3c(=O)[nH]ccc23)c1C(F)(F)F [Cpd 361, N-(2-morpholinopyridin-4-yl)-1-(1-oxo-1,2-dihydroisoquinolin-5-yl)-5-(trifluoromethyl)-1H-pyrazole-4-carboxamide]	12.3 µM	–	–	1.26 µM	0.617 µM
N#Cc1cc(NC(=O)c2cnn(-c3nncc4ccccc34)c2C(F)(F)F)cnc1-n1nccn1 [Cpd 102, N-(5-cyano-6-(2H-1,2,3-triazol-2-yl)pyridin-3-yl)-1-(phthalazin-1-yl)-5-(trifluoromethyl)-1H-pyrazole-4-carboxamide]	0.042 µM	–	–	0.11 µM	0.186 µM
O=C(Nc1ccnc(C(F)(F)F)c1)c1cnn(-c2cccc3nccn23)c1C(F)(F)F [Cpd 208, 1-(imidazo[1,2-a]pyridin-5-yl)-5-(trifluoromethyl)-N-(2-(trifluoromethyl)pyridin-4-yl)-1H-pyrazole-4-carboxamide]	0.316 µM	–	–	> 15.1 µM	8.71 µM
O=C(Nc1cnc(-n2nccn2)c(Cl)c1)c1cnn(-c2cccc3nc(C(F)F)ccc23)c1C(F)(F)F [Cpd 395, N-(5-chloro-6-(2H-1,2,3-triazol-2-yl)pyridin-3-yl)-1-(2-(difluoromethyl)quinolin-5-yl)-5-(trifluoromethyl)-1H-pyrazole-4-carboxamide]	3.47 µM	–	–	0.072 µM	0.028 µM
Cc1nc2c(-n3ncc(C(=O)Nc4cnc(-n5nccn5)c(C#N)c4)c3C(F)(F)F)cccc2s1 [Cpd 245, N-(5-cyano-6-(2H-1,2,3-triazol-2-yl)pyridin-3-yl)-1-(2-methylbenzo[d]thiazol-4-yl)-5-(trifluoromethyl)-1H-pyrazole-4-carboxamide]	0.389 µM	–	–	0.708 µM	0.141 µM
O=C(Nc1cnc(-n2nccn2)c(Cl)c1)c1cnn(-c2c[n+]([O-])cc3ccccc23)c1C(F)(F)F [Cpd 406, 4-(4-((5-chloro-6-(2H-1,2,3-triazol-2-yl)pyridin-3-yl)carbamoyl)-5-(trifluoromethyl)-1H-pyrazol-1-yl)isoquinoline 2-oxide]	0.076 µM	–	–	0.224 µM	0.2 µM
